Source: patent publication US8841460B2, “Tunable phenylacetylene hosts” (State of Oregon, acting by and through the State Board of …, priority 2011, dated 2014)

Tests used:
[1] = Photoluminescence quantum yield and Stokes shift in MeCN; format: physicochemical
Method: This example describes general materials and methods used in the synthesis and characterization of exemplary host compounds. All solvents were dried over 3 Å molecular sieves unless otherwise stated. THF, Et3N, and CH2Cl2 were respectively distilled from potassium metal and CaH2 prior to use. All other materials were obtained from TCI-America, Sigma-Aldrich, Acros and Strem and used as received. ^1H and ^13C NMR spectra were recorded using a Varian Inova 300 (^1H 299.95 MHz, ^13C 75.43 MHz) or Inova 500 (^1H 500.10 MHz, ^13C 125.75 MHz) spectrometer. Chemical shifts (δ) expressed as ppm downfield from tetramethylsilane using either the residual solvent peak as an internal standard (CDCl3 ^1H, 7.27 ppm) or using CDCl3 spiked with 1% […] for the ^1H NMR spectra. For the ^13C NMR spectra the middle CDCl3 peak (δ 77.00 ppm) was used as the internal standard. Signal patterns are indicated as b, broad; s, singlet; d, doublet; t, triplet; m, multiplet. Coupling constants (J) are given in hertz. UV-Vis spectra were recorded using a Hewlett-Packard 8453 spectrophotometer and extinction coefficients are expressed in M^−1 cm^−1. Mass spectra were recorded using an Agilent 1100 Series LC/MSD. Emission spectra were recorded on a Hitachi F-4500 fluorescence spectrophotometer. Melting points were determined with a Meltemp II apparatus or a TA Instruments DSC 2920 Modulated DSC. […]

[2] = Absorption/fluorescence response upon addition of TFA; conditions: reversed by aqueous base
Excerpt: The absorption spectra of compounds 6-8 and 10 are dominated by a characteristic pattern consisting of three peaks. There is a lack of significant spectral changes associated with conversion of diamide 8 to disulfide 10, which is not unexpected, as overall conjugation remains limited by the methylene spacer.

Row | SMILES | Quantum Yield (PLQY) [1] [%] | Stokes Shift [1] [cm⁻¹] | spectral change upon addition of TFA [2]
1 | CC(C)(C)c1ccc(N)c(C#Cc2cccc(C#Cc3cc(C(C)(C)C)ccc3N)n2)c1 [Dianiline 6, 2,2′-(pyridine-2,6-diylbis(ethyne-2,1-diyl))bis(4-tert-butylaniline)] | 0.6 | 5270 | 
2 | CC(C)(C)c1ccc2c(c1)C#Cc1cccc(n1)C#Cc1cc(C(C)(C)C)ccc1NC(=O)CSSCC(=O)N2 [disulfide 10] |  |  | conversion from a colorless solution with purple fluorescence to a deep yellow solution with yellow fluorescence
